Starred links: 1 amine or outer side, 2 acyl side, 3 side chain; linkers in the order of their positions; H or OH if unused. Positions of bridges follow the written chain, without caps; N, C: chain ends. Non-standard residues stand in square brackets, D forms with d. Residues, ends and D or L forms follow the SMILES beside them. Chains are numbered I, II in the order given. Actinocin(9to1) = Cc1c2oc3c(C)ccc(C(=O)[*:1])c3nc-2c(C(=O)[*:2])c(N)c1=O; NMeV = CN[C@H](C(=O)O)C(C)C; Sar = CNCC(=O)O
How the values were obtained:
Format in all cases: cell-based, human
[1] = system: MCF-7/ADR; experiment: Cytotoxic assay, MDR reversing effect with Adriamycin in resistant breast carcinoma cells
Experimental: (§1) Cell Culture: HCT116/VM46 cells were selected from human colon carcinoma HCT116 cell line for resistance to VM26 and MCF-7/ADR cells were selected from human breast carcinoma MCF-7 cell line for resistance to Adriamycin. […] The cell lines were grown in tissue culture flasks containing McCoy's 5A medium and 10% fetal bovine serum. Cells were maintained at 37°C in a humidified atmosphere containing 5% C02 and subcultured every 5 days.
(§2) Cytotoxic Assay: The cells were seeded in 96 well microtiter plates at 5x10^3 cells per well and allowed to grow for 24 hours at 37 °C. Cells were then incubated with decreasing amounts of antitumor agents: Adriamycin (100 µM, maximal concentration) or actinomycin D (17.6 ng/ml), for MCF-7 and HCT-116 cells, respectively. Chemosensitizers were added at variable concentrations ranging from 0.08 µM to […]. In parallel, verapamil was used as positive control at the same concentrations. After 48 hours of incubation, the cells were washed, fixed and stained with crystal violet. Absorbance was read by Molecular Devices' microtiter plate reader at the wavelength of 595nm. The IC50 value (50% inhibition of cell growth) was determined from relative survival rates resulted from two to three independent experiments. The term "fold resistance" was defined as the ratio of the IC50 for antitumor drug in the presence or absence of chemosensitizer in resistant cells divided by the IC50 for antitumor drug in its sensitive counterpart. This value provides an estimate of the apparent potency of each reversing agent in enhancing drug effect.

[2] = system: HCT-116/VM46; experiment: Cytotoxic assay, MDR reversing effect with actinomycin D in resistant colon carcinoma cells
Experimental: as §1, §2

[3] = system: HCT116; experiment: Cytotoxic assay, actinomycin D in sensitive colon carcinoma cells; conditions: no chemosensitizer
Experimental: as §1
as §2, with “The term "fold resistance" was defined as the ratio of the IC50 for antitumor drug in the presence or absence of chemosensitizer in resistant cells divided by the IC50 for antitumor drug in its sensitive counterpart. This value provides an estimate of the apparent potency of each reversing agent in enhancing drug effect.” left out

[4] = ActD IC50 in HCT-116/VM46 with chemosensitizer 0.4 μM divided by ActD IC50 in sensitive HCT116
[5] = ADR IC50 in MCF-7/ADR with chemosensitizer 0.67 µM divided by ADR IC50 in sensitive MCF-7

**Q.** What does the source list for COc1cccc2c1C(=O)c1c(O)c3c(c(O)c1C2=O)C[C@@](O)(C(=O)CO)C[C@@H]3O[C@H]1C[C@H](N)[C@H](O)[C@H](C)O1 [ADR, Adriamycin]?
**A.** IC50 ([1]; Homo sapiens, NCI/ADR-RES, 48 h, MCF-7/ADR cells, no chemosensitizer): 50 µM; Fold Resistance ([1]; MCF-7/ADR versus MCF-7, ADR, no chemosensitizer): 138.9

**Q.** How did the “ActD IC50” value ([2]; HCT-116/VM46 cells, no chemosensitizer) turn out when Cc1c2oc3c(C)ccc(C(=O)N[C@@H]4C(=O)N[C@H](C(C)C)C(=O)N5CCC[C@H]5C(=O)N(C)CC(=O)N(C)[C@@H](C(C)C)C(=O)O[C@@H]4C)c3nc-2c(C(=O)N[C@@H]2C(=O)N[C@H](C(C)C)C(=O)N3CCC[C@H]3C(=O)N(C)CC(=O)N(C)[C@@H](C(C)C)C(=O)O[C@@H]2C)c(N)c1=O [ActD, Actinomycin D] (I: T[dV]P[Sar][NMeV] / II: T[dV]P[Sar][NMeV]; ester I:1-I:C, II:1-II:C; linker I:N-II:N via Actinocin(9to1)) was run?
**A.** 10 ng/mL

**Q.** What about the “Fold Resistance” value ([2]; HCT-116/VM46 versus HCT116, ActD, no chemosensitizer) of the same molecule?
**A.** 20.0

**Q.** And the “ActD IC50” value [3]?
**A.** 0.5 ng/mL

**Q.** CCN(CC)CCN(C(=O)c1cc(Cl)c(N)cc1Oc1ccc(C(F)(F)F)cc1[N+](=O)[O-])c1ccc(C(F)(F)F)cc1[N+](=O)[O-] [Ia] was tested. Which “Fold Resistance” value [2, 4] did it give?
**A.** 11.0

**Q.** With CCN(CC)CCNC(=O)c1cc(Cl)c(N)cc1OCCCc1ccccc1 [Ic, 4-Amino-5-chloro-N-[2-(diethylamino)ethyl]-2-[3-(phenyl)pronoxy]benzamide] as the molecule, how does the “Fold Resistance” value [2, 4] read?
**A.** 9.8

**Q.** C/C=C/C(=O)Nc1cc(OCCSc2ccccc2)c(C(=O)NCCN(CC)CC)cc1Cl [If, 5-Chloro-4-crotonylamino-N-[2-(diethylamino)ethyl]-2-[2-(phenylthio)ethoxy]benzamide] was tested. Which “Fold Resistance” value [1, 5] did it give?
**A.** 28.6

**Q.** And the “Fold Resistance” value [2, 4]?
**A.** 4.8

**Q.** Which “Fold Resistance” value [2, 4] does the source give for CCN(CC)CCN(C(=O)c1cc(Cl)c(N)cc1Oc1ccc([N+](=O)[O-])cc1)c1ccc([N+](=O)[O-])cc1 [Ii, 4-Amino-5-chloro-N-[2-(diethylamino)ethyl]-2-(4-nitrophenoxy)-N-(4-nitrophenyl)benzamide] here?
**A.** 9.8

**Q.** For COc1ccc(CCN(C)CCCC(C#N)(c2ccc(OC)c(OC)c2)C(C)C)cc1OC (stereo not drawn) [Verapamil, verapamil], which “Fold Resistance” value [1, 5] is on record?
**A.** 63.9

**Q.** And the “Fold Resistance” value [2, 4]?
**A.** 11.6

— patent EP0529395A2, “Benzamide multidrug resistance reversing agents” (Bristol-Myers Squibb Company, priority 1991, dated 1993)
